In ChEMBL document CHEMBL1201862, “PubChem BioAssay data set” (2004):
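Grown in 96-well plates, cells were treated for 48 hours with each compound at five concentrations. Insufficient inhibition: endpoint recorded as highest concentration tested. The concentration for 50% growth inhibition is given as GI50.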 The source made the active and inactive calls. Cut-off read from the data, not from the text of the source: active = GI50 up to about 1.1 µM and inactive = higher.

Columns and labels:
Assay in all cases: growth of human tumour cells (NCI), 48 h
[1] = tested on: ACHN
[2] = tested on: RPMI-8226
[3] = tested on: OVCAR-8
[4] = tested on: SN12C
[5] = tested on: SK-OV-3
[6] = tested on: HOP-62
[7] = tested on: MOLT-4
[8] = tested on: A549
[9] = tested on: SNB-19
[10] = tested on: SF-539
[11] = tested on: HL-60
[12] = tested on: UACC-62
[13] = tested on: EKVX
[14] = tested on: OVCAR-3
[15] = tested on: LOX IMVI
[16] = tested on: OVCAR-5

Measured: GI50

CCOC(=O)NC/C=C/CO
inactive: [1] > 100 µM | [2] > 100 µM | [3] > 100 µM | [4] > 100 µM | [5] > 100 µM | [6] > 100 µM | [7] > 100 µM | [8] > 100 µM | [9] > 100 µM | [10] > 100 µM | [11] > 100 µM | [12] > 100 µM

CC1OC(CC2C=CCc3c(O)c4c(c(O)c32)C(=O)c2ccccc2C4=O)CC(NC(=O)C(F)(F)F)C1O (centres undefined)
inactive: [1] 10.9 µM | [13] 12.6 µM | [2] 4.28 µM | [14] 6.76 µM | [3] 4.22 µM | [4] 5.5 µM | [5] 10.2 µM | [6] 6.49 µM | [7] 7.21 µM | [15] 6.73 µM | [9] 4.86 µM | [10] 3.95 µM | [16] 42.8 µM | [11] 11.8 µM | [12] 4.71 µM

CCC12C=CCN3CCC4(C(=C(C(=O)OC)[C@@H]1O)Nc1ccccc14)C32 (some centres undefined)
inactive: [1] 1.56 µM | [13] 1.85 µM | [2] 2.17 µM | [14] 1.99 µM | [3] 2.04 µM | [4] 2.3 µM | [5] 2.43 µM | [6] 2.12 µM | [7] 2.43 µM | [15] 1.64 µM | [8] 2.09 µM | [9] 1.91 µM | [10] 2.07 µM | [16] 2.44 µM | [11] 2 µM | [12] 1.77 µM

c1ccc(C(c2ccccc2)c2ccncc2)cc1
inactive: [1] > 100 µM | [13] > 100 µM | [2] > 100 µM | [14] > 100 µM | [3] > 100 µM | [4] > 100 µM | [5] > 100 µM | [6] > 100 µM | [7] > 100 µM | [15] > 100 µM | [8] > 100 µM | [9] > 100 µM | [10] > 100 µM | [16] > 100 µM | [12] > 100 µM

CC(O)C(NC(=O)c1ccccc1)C(=O)N(Cc1ccccc1)Cc1ccccc1 (centres undefined)
inactive: [1] > 100 µM | [13] > 100 µM | [2] 28.9 µM | [14] > 100 µM | [3] > 100 µM | [4] > 100 µM | [5] > 100 µM | [6] > 100 µM | [7] 61.4 µM | [15] > 100 µM | [8] 80.9 µM | [9] > 100 µM | [10] > 100 µM | [16] > 100 µM | [11] 18.9 µM | [12] > 100 µM

CC(C)(C)c1ccc(OCCOCCOc2ccc(C(C)(C)C)cc2S(=O)(=O)Nc2ccc([N+](=O)[O-])cc2)c(S(=O)(=O)Nc2ccc([N+](=O)[O-])cc2)c1
inactive: [1] 7.13 µM | [13] 62.5 µM | [14] 7.43 µM | [3] 9.95 µM | [4] 7.19 µM | [5] > 100 µM | [6] 81.7 µM | [7] 3.01 µM | [15] 23.4 µM | [8] 4.42 µM | [9] 76.4 µM | [10] > 100 µM | [16] > 100 µM | [11] 5.58 µM | [12] 6.21 µM

Cc1cc2occ(-c3ccc(Cl)cc3)c2c(=O)o1
inactive: [1] > 100 µM | [13] > 100 µM | [2] 61.4 µM | [14] > 100 µM | [3] > 100 µM | [4] > 100 µM | [5] > 100 µM | [6] > 100 µM | [7] 67.9 µM | [15] 72.8 µM | [8] > 100 µM | [9] > 100 µM | [10] > 100 µM | [16] > 100 µM | [11] > 100 µM | [12] > 100 µM

CCc1cccc(C(C)C)c1NC(=O)CCl
inactive: [1] 90.2 µM | [13] > 100 µM | [2] > 100 µM | [14] > 100 µM | [4] > 100 µM | [5] > 100 µM | [7] > 100 µM | [15] 80.7 µM | [8] > 100 µM | [9] 28.1 µM | [10] > 100 µM | [11] 22.4 µM | [12] 45.1 µM

COc1ccc(OC)c(/C=N/N=C(\N)NO)c1
inactive: [1] 12.3 µM | [13] 13.3 µM | [14] 23.8 µM | [3] 27.7 µM | [4] 31.4 µM | [5] 30.7 µM | [6] 29.6 µM | [15] 2.84 µM | [8] 8.22 µM | [9] 88.7 µM | [10] 7.62 µM | [16] 27.4 µM | [11] 25.4 µM | [12] 4.61 µM

Cc1c(-c2coc(-c3ccc(Cl)cc3)n2)c(=O)n(-c2ccccc2)n1C
inactive: [1] > 100 µM | [13] > 100 µM | [2] > 100 µM | [14] 93.3 µM | [3] > 100 µM | [4] > 100 µM | [5] > 100 µM | [6] > 100 µM | [7] > 100 µM | [15] > 100 µM | [8] > 100 µM | [10] > 100 µM | [16] > 100 µM | [11] > 100 µM | [12] > 100 µM

Cc1ccc(Sc2ccccc2N)cc1
inactive: [1] 37.7 µM | [13] 54.6 µM | [2] 19.3 µM | [14] 44.7 µM | [3] 52.2 µM | [4] 41.1 µM | [5] > 100 µM | [6] 6.53 µM | [7] 18.4 µM | [15] 36.8 µM | [8] 39.3 µM | [9] 38.6 µM | [10] 29.5 µM | [16] > 100 µM | [11] 18.9 µM | [12] 53.2 µM

CCCCc1c2c(nc3c1CCc1cc(C=O)c(N)nc1-3)/C(=C/c1ccccc1)CCC2
inactive: [1] > 100 µM | [13] 48.4 µM | [2] > 100 µM | [14] > 100 µM | [3] 46.2 µM | [4] > 100 µM | [5] > 100 µM | [6] > 100 µM | [7] 52.2 µM | [15] > 100 µM | [8] 19.6 µM | [9] > 100 µM | [10] > 100 µM | [16] > 100 µM | [11] 63.1 µM | [12] > 100 µM

O=C(Nc1nc2ncn(CCI)c2c(=O)[nH]1)c1ccccc1
inactive: [1] > 75 µM | [13] > 80.4 µM | [2] > 100 µM | [14] 52.8 µM | [3] 31.2 µM | [4] 59.3 µM | [5] 33.7 µM | [6] 30.1 µM | [7] > 100 µM | [15] > 100 µM | [8] 76 µM | [9] 41.9 µM | [10] 26.1 µM | [16] > 100 µM | [11] > 100 µM | [12] 53.8 µM

N#CC(C(=O)C(=O)Nc1c(Cl)cccc1Cl)c1ccccc1 (centres undefined)
active: [15] 0.356 µM | [16] 0.906 µM
inactive: [1] > 10 µM | [13] > 10 µM | [2] > 10 µM | [14] > 10 µM | [3] > 100 µM | [4] > 10 µM | [5] > 10 µM | [6] > 10 µM | [7] > 10 µM | [8] > 10 µM | [9] > 10 µM | [10] > 10 µM | [11] > 10 µM | [12] > 10 µM

Cc1ccccc1NC(=O)C(=O)C(C(=O)c1ccccc1F)C1OC(=O)c2ccccc21 (centres undefined)
inactive: [1] 43.7 µM | [13] 96.6 µM | [2] 11.9 µM | [14] 24.6 µM | [3] > 10 µM | [4] 25 µM | [5] 34.1 µM | [6] 17.3 µM | [7] 9.59 µM | [15] 16 µM | [8] 42.2 µM | [9] 10.1 µM | [10] 8.32 µM | [16] 41.8 µM | [11] 16.3 µM

CC(=O)OC12C(C)=C(C)C(=O)N1c1ccccc1N2C(C)=O (centres undefined)
inactive: [1] > 100 µM | [13] > 100 µM | [2] > 100 µM | [14] > 100 µM | [3] > 100 µM | [5] > 100 µM | [6] > 100 µM | [7] > 100 µM | [15] > 100 µM | [8] > 100 µM | [9] > 100 µM | [16] > 100 µM | [11] > 100 µM | [12] > 100 µM

CC(=O)OC1CCC2C(=CCC3C2(C)C(=O)CC2(C)C(C4(C)OC(C(C)C)=CC4=O)C(O)CC32C)C1(C)C (centres undefined)
inactive: [1] 40.7 µM | [13] 57.3 µM | [2] 22 µM | [14] > 10 µM | [3] 43.7 µM | [4] 54.5 µM | [5] 35.7 µM | [6] > 100 µM | [7] 32.4 µM | [8] 31.6 µM | [9] > 100 µM | [10] 18.1 µM | [16] > 100 µM | [12] 19.1 µM

O=C1c2cccc3cc([N+](=O)[O-])cc(c23)C(=O)N1CCNCCNCCNCCN1C(=O)c2cccc3cc([N+](=O)[O-])cc(c23)C1=O
active: [1] 0.01 µM | [13] 0.112 µM | [2] 0.01 µM | [14] 0.109 µM | [3] < 0.001 µM | [4] 0.00251 µM | [5] 0.0212 µM | [6] 0.00143 µM | [7] < 0.001 µM | [8] < 0.001 µM | [9] < 0.001 µM | [10] 0.00547 µM | [16] 0.0111 µM | [11] 0.01 µM | [12] 0.00322 µM
